Several values for one entry are separate records, joined by “and”; a condition that tells them apart may be missing. Equal values may be shown once.
Experiments:
Format in all cases: biochemical
TMPRSS2 = TMPRSS2 (Homo sapiens, UniProt O15393); assay: PS-SCL / HyCoSuL substrate specificity screening, TMPRSS2; conditions: for P2 Position Substrate Activity for TMPRSS2 (percent substrate cleavage/proteolysis): residue fixed at P2 position of substrate library
HGFA = biological target: T1, HGFA (Homo sapiens, UniProt Q04756); assay: HyCoSuL P4-P2 substrate specificity screening, HGFA; conditions: for P2 Position Substrate Activity for HGFA (percent substrate cleavage/proteolysis): residue fixed at P2 position; for P3 Position Various Amino Acids Substrate Activity, HGFA (percent substrate cleavage/proteolysis): residue fixed at P3 position of substrate library; for P4 Position Various Amino Acids Substrate Activity, HGFA (percent substrate proteolysis/cleavage): residue fixed at P4 position of substrate library
T1 sequence (Q04756 373-655): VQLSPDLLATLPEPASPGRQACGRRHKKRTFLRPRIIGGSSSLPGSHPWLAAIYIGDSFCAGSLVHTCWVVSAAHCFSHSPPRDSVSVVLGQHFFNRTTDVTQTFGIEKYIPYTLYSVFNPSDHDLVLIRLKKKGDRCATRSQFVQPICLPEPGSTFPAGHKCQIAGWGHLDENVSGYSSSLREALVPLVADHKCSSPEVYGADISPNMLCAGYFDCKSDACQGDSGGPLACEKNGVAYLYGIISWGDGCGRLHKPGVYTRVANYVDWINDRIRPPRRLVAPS

hepsin = biological target: T2, hepsin (Homo sapiens, UniProt P05981); assay: HyCoSuL P4-P2 substrate specificity screening, hepsin; conditions: for P2 Position Substrate Activity for hepsin (percent substrate cleavage/proteolysis): residue fixed at P2 position; for P3 Position Various Amino Acids Substrate Activity, hepsin (percent substrate cleavage/proteolysis): residue fixed at P3 position of substrate library; for P4 Position Various Amino Acids Substrate Activity, hepsin (percent substrate proteolysis/cleavage): residue fixed at P4 position of substrate library
T2 construct: purchased R&D Systems 4776-SE-010
T2 sequence (P05981 163-417 limits assumed): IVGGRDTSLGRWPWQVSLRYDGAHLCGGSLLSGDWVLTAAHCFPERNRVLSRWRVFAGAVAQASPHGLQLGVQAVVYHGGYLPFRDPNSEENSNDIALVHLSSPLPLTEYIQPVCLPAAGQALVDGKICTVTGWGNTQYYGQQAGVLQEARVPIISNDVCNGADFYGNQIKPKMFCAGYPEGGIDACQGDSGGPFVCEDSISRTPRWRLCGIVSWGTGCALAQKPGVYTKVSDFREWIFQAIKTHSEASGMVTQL
T2 sequence (P05981 1-162 partner limits assumed): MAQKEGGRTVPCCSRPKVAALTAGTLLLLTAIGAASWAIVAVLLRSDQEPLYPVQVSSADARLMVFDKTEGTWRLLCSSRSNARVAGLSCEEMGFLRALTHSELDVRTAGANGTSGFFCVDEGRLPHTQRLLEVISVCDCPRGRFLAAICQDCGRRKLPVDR

matriptase = biological target: T3, matriptase (Homo sapiens, UniProt Q9Y5Y6); assay: HyCoSuL P4-P2 substrate specificity screening, matriptase; conditions: for P2 Position Substrate Activity for matriptase (percent substrate cleavage/proteolysis): residue fixed at P2 position; for P3 Position Various Amino Acids Substrate Activity, matriptase (percent substrate cleavage/proteolysis): residue fixed at P3 position of substrate library; for P4 Position Various Amino Acids Substrate Activity, matriptase (percent substrate proteolysis/cleavage): residue fixed at P4 position of substrate library
T3 sequence (Q9Y5Y6 1-855): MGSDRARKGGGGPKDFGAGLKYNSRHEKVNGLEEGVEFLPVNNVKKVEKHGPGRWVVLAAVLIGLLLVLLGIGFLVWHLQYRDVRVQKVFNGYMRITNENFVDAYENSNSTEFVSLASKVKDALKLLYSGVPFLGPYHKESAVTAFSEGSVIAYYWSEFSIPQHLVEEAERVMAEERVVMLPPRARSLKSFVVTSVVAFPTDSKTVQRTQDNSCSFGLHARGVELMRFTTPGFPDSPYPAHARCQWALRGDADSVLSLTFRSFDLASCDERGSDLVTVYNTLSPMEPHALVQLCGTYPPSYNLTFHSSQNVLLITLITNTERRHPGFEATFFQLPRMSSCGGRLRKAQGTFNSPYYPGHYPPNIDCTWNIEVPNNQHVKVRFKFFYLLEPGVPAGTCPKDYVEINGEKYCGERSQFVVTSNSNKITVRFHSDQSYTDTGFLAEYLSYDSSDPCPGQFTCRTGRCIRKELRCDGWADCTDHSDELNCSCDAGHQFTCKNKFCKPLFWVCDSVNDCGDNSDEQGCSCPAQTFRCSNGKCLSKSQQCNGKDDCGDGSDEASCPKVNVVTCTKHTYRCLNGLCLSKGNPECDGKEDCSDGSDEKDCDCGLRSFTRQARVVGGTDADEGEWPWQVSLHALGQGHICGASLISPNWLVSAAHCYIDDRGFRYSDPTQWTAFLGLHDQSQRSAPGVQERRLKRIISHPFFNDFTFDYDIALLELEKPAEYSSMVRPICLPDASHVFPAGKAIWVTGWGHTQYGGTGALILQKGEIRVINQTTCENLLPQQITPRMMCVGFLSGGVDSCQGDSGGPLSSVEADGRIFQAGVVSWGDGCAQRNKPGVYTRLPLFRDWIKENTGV

[1] = best recognized amino acid set to 100%
[2] = residue fixed at P3 position of substrate library
[3] = residue fixed at P4 position of substrate library
[4] = P1-Arg HyCoSuL, 100 μM, best recognized amino acid set to 100%
[5] = residue fixed at P3 position, P1-Arg HyCoSuL, 100 μM, best recognized amino acid set to 100%
[6] = residue fixed at P4 position, P1-Arg HyCoSuL, 100 μM, best recognized amino acid set to 100%

Sequence of TMPRSS2 (O15393 whole entry): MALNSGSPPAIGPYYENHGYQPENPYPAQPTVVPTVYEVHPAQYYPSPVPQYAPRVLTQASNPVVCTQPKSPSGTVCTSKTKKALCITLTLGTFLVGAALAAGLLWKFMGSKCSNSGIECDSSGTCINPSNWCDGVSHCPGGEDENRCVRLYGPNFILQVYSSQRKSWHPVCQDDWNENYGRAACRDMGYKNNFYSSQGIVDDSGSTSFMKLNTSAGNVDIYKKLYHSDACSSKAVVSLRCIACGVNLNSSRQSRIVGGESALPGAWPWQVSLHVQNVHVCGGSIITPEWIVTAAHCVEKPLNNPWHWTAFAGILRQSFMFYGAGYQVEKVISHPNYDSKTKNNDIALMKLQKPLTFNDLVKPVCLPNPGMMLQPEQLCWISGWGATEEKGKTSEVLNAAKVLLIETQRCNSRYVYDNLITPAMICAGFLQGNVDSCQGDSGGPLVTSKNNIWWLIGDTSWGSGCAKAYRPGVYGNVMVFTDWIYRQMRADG

Substance	P2 Position Substrate Activity for TMPRSS2 (percent substrate cleavage/proteolysis) (TMPRSS2; [1])	P3 Position Various Amino Acids Substrate Activity, TMPRSS2 (percent substrate cleavage/proteolysis) (TMPRSS2; [2])	P4 Position Various Amino Acids Substrate Activity, TMPRSS2 (percent substrate proteolysis/cleavage) (TMPRSS2; [3])	P2 Position Substrate Activity for HGFA (percent substrate cleavage/proteolysis) (HGFA; [4])	P3 Position Various Amino Acids Substrate Activity, HGFA (percent substrate cleavage/proteolysis) (HGFA)	P4 Position Various Amino Acids Substrate Activity, HGFA (percent substrate proteolysis/cleavage) (HGFA)	P2 Position Substrate Activity for hepsin (percent substrate cleavage/proteolysis) (hepsin; [4])	P3 Position Various Amino Acids Substrate Activity, hepsin (percent substrate cleavage/proteolysis) (hepsin)	P4 Position Various Amino Acids Substrate Activity, hepsin (percent substrate proteolysis/cleavage) (hepsin)	P2 Position Substrate Activity for matriptase (percent substrate cleavage/proteolysis) (matriptase; [4])	P3 Position Various Amino Acids Substrate Activity, matriptase (percent substrate cleavage/proteolysis) (matriptase)	P4 Position Various Amino Acids Substrate Activity, matriptase (percent substrate proteolysis/cleavage) (matriptase)	P3 Position Substrate Activity for TMPRSS2 (percent substrate cleavage/proteolysis) (TMPRSS2; residue fixed at P3 position of substrate library, best recognized amino acid set to 100%)	P4 Position Substrate Activity for TMPRSS2 (percent substrate cleavage/proteolysis) (TMPRSS2; residue fixed at P4 position of substrate library, best recognized amino acid set to 100%)	P3 Position Substrate Activity for HGFA (percent substrate cleavage/proteolysis) (HGFA; [5])	P4 Position Substrate Activity for HGFA (percent substrate cleavage/proteolysis) (HGFA; [6])	P3 Position Substrate Activity for hepsin (percent substrate cleavage/proteolysis) (hepsin; [5])	P4 Position Substrate Activity for hepsin (percent substrate cleavage/proteolysis) (hepsin; [6])	P3 Position Substrate Activity for matriptase (percent substrate cleavage/proteolysis) (matriptase; [5])	P4 Position Substrate Activity for matriptase (percent substrate cleavage/proteolysis) (matriptase; [6])
L-Ala	25.14%	31.84%	26.30%	2.37%	8.97%	6.68%	17.85%	28.07%	41.30%	28%	34%	31%	–	–	–	–	–	–	–	–
L-Arg	5.65%	–	–	2.08%	–	–	57.23%	–	–	0%	70%	100%	27.44%	27.99%	43.98%	23.62%	70.75%	80.32%	62.39% and 70.35%	100.00%
L-Asn	9.49%	19.47%	21.89%	4.79%	6.12%	8.20%	63.72%	24.47%	25.25%	12%	14%	10%	–	–	–	–	–	–	–	–
L-Asp	9.72%	25.70%	7.77%	1.21%	2.81%	1.90%	0.33%	3.89%	0.22%	1%	2%	1%	–	–	–	–	–	–	–	–
L-Cit	0.00%	32.80%	33.20%	6.32%	13.41%	6.44%	32.27%	29.53%	36.68%	1%	21%	18%	–	–	–	–	–	–	–	–
